The source of these data is patent publication US20140128352A1, “COMPOUNDS AND METHODS FOR MODULATING MITOCHONDRIAL METABOLISM AND REACTIVE OXYGEN SPECIES PRODUCTION” (Buck Institute for Research on Aging, priority 2012, published 2014).

Assay [1] addresses T1, succinate dehydrogenase/complex II (SDH) (Rattus norvegicus, UniProt P21913+Q641Z9+Q6PCT8+Q920L2).
T1 construct: freshly isolated muscle mitochondria were assayed; from tissue; host or cells: rat skeletal muscle mitochondria (Wistar, Harlan Laboratories)
Nature of the assay: High-throughput screen: ROS production from succinate dehydrogenase/complex II (SDH). The class given is biochemical. Conditions: percent change in ROS from DMSO controls.

In assay [2] the target is T2, flavin binding site of complex I (IF) (Rattus norvegicus, UniProt Q5XIH3).
T2 construct: freshly isolated muscle mitochondria were assayed; from tissue; host or cells: rat skeletal muscle mitochondria (Wistar, Harlan Laboratories)
T2 sequence (Q5XIH3 21-464 limits assumed, one chain of several): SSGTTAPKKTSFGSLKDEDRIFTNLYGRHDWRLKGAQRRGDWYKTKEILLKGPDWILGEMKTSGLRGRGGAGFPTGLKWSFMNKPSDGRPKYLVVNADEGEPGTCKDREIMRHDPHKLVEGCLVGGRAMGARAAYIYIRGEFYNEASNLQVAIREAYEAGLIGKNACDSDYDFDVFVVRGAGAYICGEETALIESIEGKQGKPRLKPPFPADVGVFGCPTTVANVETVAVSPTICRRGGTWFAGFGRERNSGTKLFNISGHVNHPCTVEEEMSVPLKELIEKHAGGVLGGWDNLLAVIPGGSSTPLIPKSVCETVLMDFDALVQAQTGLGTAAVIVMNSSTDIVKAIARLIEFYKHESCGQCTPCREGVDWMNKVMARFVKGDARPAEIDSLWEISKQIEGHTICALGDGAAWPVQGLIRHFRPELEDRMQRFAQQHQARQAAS
Nature of the assay: High-throughput screen: ROS production from flavin binding site of complex I (IF). The format is biochemical.
Protocol: (§1) Skeletal muscle mitochondria were isolated from 5-8 week old female Wistar rats (Harlan Laboratories). Minced muscle was homogenized in buffer containing bacterial protease Type VIII prior to differential centrifugation to separate mitochondria from other tissue components. Unless otherwise stated, freshly isolated muscle mitochondria were assayed in buffer containing 120 mM KCl, 5 mM HEPES, 1 mM EGTA, 0.3% (w/v) bovine serum albumin. Where indicated, CaCl2 was added to yield a final free concentration of 250 nM calcium at pH 7.0 at 37° C.
Master screening plates were prepared using a Biomek FX liquid handling workstation (Beckman) to transfer 1 μL of each compound into individual wells on 96-well storage plates (80 compounds per plate). […] Just prior to use, plates were brought to room temperature and diluted 300-fold with standard buffer (13.3X=33.3 μM). To monitor the performance of each assay throughout screening and to provide intra-plate normalization reference points, DMSO negative controls and known mitochondrial inhibitor positive controls were included on each Master compound plate.
(§2) Total amounts of superoxide and H2O2 production were determined fluorometrically as H2O2, without distinguishing between them, in the presence of exogenous superoxide dismutase (25 units/mL final), horseradish peroxidase (1 unit/mL final), and Amplex UltraRed (25 μM final) as described (Affourtit, C. et al. (2012) Measurement of proton leak and electron leak in isolated mitochondria. Methods Mol. Biol. 810: 165-82). Just prior to use, a bulk 3.3X solution was made in standard buffer and distributed into a 2 mL deep well 96-well transfer plate.
To assess the effects of a compound on ROS production from the flavin binding site of complex I (IF), Start Solution containing 5 mM glutamate, 5 mM malate and 4 μM rotenone was distributed into standard 96-well transfer plates. A Biomek FX workstation was programmed to dispense solutions into black 96-well assay plates. Solutions were dispensed to all assay plates in the following order: ROS Detection solution described in Example 3, Mitochondria solution described in Example 1 to a final concentration of 0.3 mg/ml, and Compound dilutions described in Example 2. Duplicate assay plates were made and each was initiated by the addition of 3.3X Start solution containing 5 mM glutamate, 5 mM malate and 4 μM rotenone. Plates were incubated in the dark at room temperature for 30-40 minutes before acquiring endpoint fluorescence using a Victor 3V plate reader (Perkin Elmer) equipped with 550/590 nm excitation/emission filters.
The fluorescence values in each well were scaled as the percent change from the intra-plate DMSO controls with the appropriate inhibitor positive controls defined as −100%. Following initial scaling, intra-plate normalized values were subjected to Tukey's two-way median polish to remove row and column dependent positional effects (Malo, N. et al. (2006) Statistical practice in high-throughput screening data analysis. Nat. Biotechnol. 24(2): 167-75).

In assay [3] the test system is ubiquinone binding site of complex I (IQ). Nature of the assay: High-throughput screen: ROS production from ubiquinone binding site of complex I (IQ), isolated skeletal muscle mitochondria. The class given is biochemical, rat. Conditions: percent change in ROS from DMSO controls.
Another assay deals with T3, site IF (Rattus norvegicus, UniProt Q5XIH3).
T3 construct: freshly isolated muscle mitochondria were assayed; from tissue; host or cells: rat skeletal muscle mitochondria (Wistar, Harlan Laboratories)
T3 sequence (Q5XIH3 21-464 limits assumed): as the sequence (Q5XIH3 21-464 limits assumed, one chain of several) above
In words: Retest of IF ROS production (expanded microplate panel). The format is biochemical. The method, then: Compounds identified as site-selective hits as well as structural analogs were re-sourced from ChemBridge and dissolved in DMSO as 80 mM stocks. Master Titration Plates were prepared manually by serially diluting 80 mM compound stocks between 0.08 and 80 mM on 96-well microplates. Four compounds were titrated in duplicate on each plate. Additional DMSO controls were interspersed across these plates to serve as local normalization controls during analysis since two-way median polishing was not appropriate. Just prior to use, compounds were diluted 100-fold with standard buffer (10X). The same known inhibitor positive controls were included on each plate as during high-throughput screening. The five core ROS assays and single ΔΨm assay were carried out as in the initial high-throughput screen. In addition, several assays were included to help validate the specificity of the compounds for a given site of production. […] The use of different substrates was designed to reveal compounds that disrupt mitochondrial function in a substrate specific manner. […] Most frequently, these changes involved the use of different substrates to supply electrons from an alternative entry point in the chain. If a site of ROS production is being targeted selectively by a compound, then in many cases the supply of electrons should not influence the effectiveness of this compound at suppressing ROS production. […] The fluorescence values in each well were scaled in relation to the intra-plate DMSO and known inhibitor controls as in the high-throughput screen except that median values for local interspersed DMSO wells (3-6 wells) were used rather than just the 8 DMSO wells in columns 1 and 12. This normalization was applied in place of the two-way median polish used during high-throughput screening to minimize row and column effects. […] At this stage, strong candidates were not necessarily excluded from further testing if subtle off-target effects were observed (e.g. loss of specificity or signs of general inhibition at the highest concentrations). Rather, these candidates were often pursued for more detailed mechanistic studies with the expectation that subsequent structure activity analysis would provide insight into which structurally related compounds would provide the optimal specificity for a given site of production.

The test system of assay [4] is mitochondrial membrane potential (ΔΨm). In words: Membrane potential (ΔΨm) counterscreen with TMRM. Conditions: malate, nigericin. In general terms: A counterscreen serves to expose hits that act by an unwanted route or on another target.
Protocol: Skeletal muscle mitochondria were isolated from 5-8 week old female Wistar rats (Harlan Laboratories). Minced muscle was homogenized in buffer containing bacterial protease Type VIII prior to differential centrifugation to separate mitochondria from other tissue components. Unless otherwise stated, freshly isolated muscle mitochondria were assayed in buffer containing 120 mM KCl, 5 mM HEPES, 1 mM EGTA, 0.3% (w/v) bovine serum albumin. Where indicated, CaCl2 was added to yield a final free concentration of 250 nM calcium at pH 7.0 at 37° C. Total and free calcium concentrations were calculated using the Extended MaxChelator program at http://maxchelator.stanford.edu.
Compounds were manually transferred from the Master Compound Plate to two black 96-well assay plates. A bulk solution was prepared containing the following components (final concentrations) and manually dispensed into the two ΔΨm assay plates: the potentiometric dye TMRM (5 μM), mitochondria (0.2 mg/mL), glutamate (5 mM), malate (5 mM), and nigericin (80 ng/mL).
Assay [5] has as its target T4, outer ubiquinone binding site of complex III (IIIQO) (Rattus norvegicus, UniProt P00159+P20788).
T4 construct: freshly isolated muscle mitochondria were assayed; from tissue; host or cells: rat skeletal muscle mitochondria (Wistar, Harlan Laboratories)
In words: High-throughput screen: ROS production from outer ubiquinone binding site of complex III (IIIQO). The format is biochemical. Conditions: percent change in ROS from DMSO controls.

The target in assay [6] is T5, glycerol-3-phosphate dehydrogenase (GPDH) (Rattus norvegicus, UniProt P35571).
T5 construct: The activity of GPDH in intact mitochondria (0.3 mg/mL) was measured; from tissue; host or cells: rat skeletal muscle mitochondria (Wistar, Harlan Laboratories)
T5 sequence (P35571 43-727): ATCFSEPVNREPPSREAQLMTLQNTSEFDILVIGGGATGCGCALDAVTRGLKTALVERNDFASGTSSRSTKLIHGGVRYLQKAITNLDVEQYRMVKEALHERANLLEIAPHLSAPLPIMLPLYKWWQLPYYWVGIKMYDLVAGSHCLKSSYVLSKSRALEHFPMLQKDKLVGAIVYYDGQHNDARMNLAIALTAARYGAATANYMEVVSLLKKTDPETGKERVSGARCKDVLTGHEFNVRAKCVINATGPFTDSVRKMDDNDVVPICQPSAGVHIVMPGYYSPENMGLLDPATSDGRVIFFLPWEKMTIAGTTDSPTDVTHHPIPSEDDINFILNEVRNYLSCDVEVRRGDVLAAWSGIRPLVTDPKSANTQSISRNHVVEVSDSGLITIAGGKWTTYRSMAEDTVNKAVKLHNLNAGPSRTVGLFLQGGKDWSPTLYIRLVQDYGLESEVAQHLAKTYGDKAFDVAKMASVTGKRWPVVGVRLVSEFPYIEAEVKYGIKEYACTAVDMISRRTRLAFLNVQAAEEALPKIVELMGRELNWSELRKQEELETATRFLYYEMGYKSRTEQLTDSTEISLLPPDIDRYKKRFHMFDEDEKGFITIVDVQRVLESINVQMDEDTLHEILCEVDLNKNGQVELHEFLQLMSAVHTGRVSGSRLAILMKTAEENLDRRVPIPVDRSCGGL
Nature of the assay: High-throughput screen: ROS production from glycerol-3-phosphate dehydrogenase (GPDH). Conditions: percent change in ROS from DMSO controls. On the set-up: inhibition: dose or concentration left out as unconfirmed. The class given is biochemical.
Protocol: as §1
Compounds (10 mM in DMSO) were randomly selected from a library of 24,000 compounds obtained from ChemBridge and curated by the lab of Robert Hughes at the Buck Institute. Master screening plates were prepared using a Biomek FX liquid handling workstation (Beckman) to transfer 1 μL of each compound into individual wells on 96-well storage plates (80 compounds per plate). Master plates were sealed with foil and stored at −80° C. Just prior to use, plates were brought to room temperature and diluted 300-fold with standard buffer (13.3X=33.3 μM). To monitor the performance of each assay throughout screening and to provide intra-plate normalization reference points, DMSO negative controls and known mitochondrial inhibitor positive controls were included on each Master compound plate.
as §2
To assess the effects of a compound on ROS production from glycerol-3-phosphate dehydrogenase (GPDH), Start Solution containing 25 mM glycerol phosphate, 4 μM rotenone, 2.5 μM antimycin A, 1 mM malonate, 2 μM myxothiazol was distributed into standard 96-well transfer plates. A Biomek FX workstation was programmed to dispense solutions into black 96-well assay plates. Solutions were dispensed to all assay plates in the following order: ROS Detection solution described in Example 3, Mitochondria solution described in Example 1 to a final concentration of 0.2 mg/ml, and Compound dilutions described in Example 2. Duplicate assay plates were made and each was initiated by the addition of 3.3X Start solution containing 25 mM glycerol phosphate, 4 μM rotenone, 2.5 μM antimycin A, 1 mM malonate, 2 μM myxothiazol. Plates were incubated in the dark at room temperature for 30-40 minutes before acquiring endpoint fluorescence using a Victor 3V plate reader (Perkin Elmer) equipped with 550/590 nm excitation/emission filters.
The fluorescence values in each well were scaled as the percent change from the intra-plate DMSO controls. […] Following initial scaling, intra-plate normalized values were subjected to Tukey's two-way median polish to remove row and column dependent positional effects (Malo et al., 2006).

Structures are written as SMILES. Entries after “also recorded” stand apart in the source; their conditions may differ. Like-named read-outs stand apart in the source and are kept apart here.

T1 sequence (Q920L2 35-656): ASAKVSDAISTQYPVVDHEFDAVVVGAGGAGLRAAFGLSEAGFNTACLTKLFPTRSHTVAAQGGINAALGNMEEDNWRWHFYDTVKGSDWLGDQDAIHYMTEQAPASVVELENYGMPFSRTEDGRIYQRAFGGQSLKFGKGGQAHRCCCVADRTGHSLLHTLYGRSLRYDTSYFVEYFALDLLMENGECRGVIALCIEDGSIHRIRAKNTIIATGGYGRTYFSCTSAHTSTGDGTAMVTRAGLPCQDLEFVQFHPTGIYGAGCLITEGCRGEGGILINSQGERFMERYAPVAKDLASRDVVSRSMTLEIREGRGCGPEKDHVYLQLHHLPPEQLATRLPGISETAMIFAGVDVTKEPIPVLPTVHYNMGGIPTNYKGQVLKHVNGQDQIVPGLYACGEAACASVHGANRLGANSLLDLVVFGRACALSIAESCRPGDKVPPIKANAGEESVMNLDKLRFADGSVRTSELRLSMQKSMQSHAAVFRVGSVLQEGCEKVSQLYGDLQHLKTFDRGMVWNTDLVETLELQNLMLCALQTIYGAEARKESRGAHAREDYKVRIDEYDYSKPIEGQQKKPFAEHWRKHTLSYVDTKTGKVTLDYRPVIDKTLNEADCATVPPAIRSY
T1 sequence (P21913 31-282): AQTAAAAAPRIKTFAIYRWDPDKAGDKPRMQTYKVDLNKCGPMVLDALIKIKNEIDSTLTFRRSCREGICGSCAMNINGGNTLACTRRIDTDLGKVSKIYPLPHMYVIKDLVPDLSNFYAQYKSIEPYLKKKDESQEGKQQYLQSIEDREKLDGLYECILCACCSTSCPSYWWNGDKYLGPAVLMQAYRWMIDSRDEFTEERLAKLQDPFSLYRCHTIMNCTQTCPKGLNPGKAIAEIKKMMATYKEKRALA
T1 sequence (Q641Z9 30-169 limits assumed): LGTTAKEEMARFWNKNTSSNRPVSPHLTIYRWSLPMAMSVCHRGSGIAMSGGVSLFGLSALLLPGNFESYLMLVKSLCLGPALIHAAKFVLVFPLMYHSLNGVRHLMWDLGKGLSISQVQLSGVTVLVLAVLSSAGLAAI
T1 sequence (Q6PCT8 57-159): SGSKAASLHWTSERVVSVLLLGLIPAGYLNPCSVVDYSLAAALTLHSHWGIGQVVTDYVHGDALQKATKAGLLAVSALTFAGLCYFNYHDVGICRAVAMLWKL

As to `Cc1ccc(C)c(CN(CCCN(C)C)CCCN(C)C)c1` [Compound 32], the inhibition at 2.5 µM in assay [1] (Table 7) was 6.8%; in assay [2] (Table 3, 5 mM glutamate, 5 mM malate, 4 μM rotenone, compounds 2.5 μM, percent change from DMSO, positive control −100%, read-out: % Reduction in ROS production (IF)) it was 28.8%; in assay [2] (Table 7, percent change in ROS from DMSO controls, read-out: IF) it was 28.8%; in assay [5] (Table 7, read-out: IIIQO), -2.5%; in assay [5] (Table 9, read-out: IIIQo), -2.5%. Besides, the SDH in assay [1] (Table 8) and in assay [1] (Table 9) was −6.8 each time. Moreover, the IF in assay [2] (Table 8, percent change in ROS from DMSO controls) was −28.8; in assay [2] (Table 9, percent change in ROS from DMSO controls) it was −28.8. Also, the IQ in assay [3] (Table 7), in assay [3] (Table 8) and in assay [3] (Table 9) was −0.6 throughout. The “effect on IF ROS and selectivity for site IF” value at site IF is “selectively lowers ROS production from site IF; also recorded: further improved selectivity for IF without compromising ΔΨm”. Further, the ΔΨm is −0.2 in assay [4] (Table 8, glutamate) and −0.2 in assay [4] (Table 9, glutamate). The compound also yielded an IIIQO in assay [5] (Table 8) of 2.5. The inhibition in assay [6] (Table 7) was -0.2%. Moreover, the GPDH in assay [6] (Table 8) and in assay [6] (Table 9) was 0.2 throughout.
